Reference: US20240101563A1, “NOVEL COMPOUNDS” (AC Immune SA, priority 2022, published 2024)
Structures can show the parent of a compound that is named as a salt.

Tested on: NLRP3 inflammasome pathway
Assay: NLRP3 inflammasome pathway activation assay, MSU stimulation, IL-1β HTRF
Format: cell-based
Conditions: Homo sapiens, 3 h, Table 7; PMA-differentiated, LPS-primed cells; MSU 200 μg/mL for 3 h; IL-1β release; read-out: IC50 Human monocyte-like cells MSU
Procedure: The following assays were used to determine the inhibitory activity of test compounds on the NLRP3 inflammasome pathway using common stimuli Nigericin (Invivogen) or monosodium urate crystals (MSU) (Invivogen).
Human monocyte-like cells were cultured in RPMI-1640 Glutamax medium supplemented with 10% heat inactivated FBS (Fetal Bovine Serum) and 50 U/mL penicillin-streptomycin (Life Technologies).
Human monocyte-like cells were seeded at 25000 per well in a 384-well plate and were differentiated overnight into macrophages with 10 ng/mL PMA (Phorbol Myristate Acetate). The following day, medium containing 10 ng/mL LPS (Lipopolysaccharide) was added. After 3 hours of LPS priming, concentrations of test compound in the range from […] were added 30 min prior to NLRP3 inflammasome pathway stimulation with Nigericin 3.75 μM or MSU 200 μg/mL for 3 h.
For IL-1p quantification, supernatants were analyzed using HTRF kit according to the manufacturer's instructions (Cisbio 62HIL1BPEH). Briefly, in a 384-well ProxiPlate™ microplate, 8 μl of sample was mixed, with 5 μl of Anti-IL1β Cryptate antibody (40×) and Anti-IL1β XL antibody (40×). Then, incubated overnight at RT. Reading was done using an EnVision Reader (PerkinElmer).
IC50 (concentration corresponding to 50% inhibition) were determined using GraphPad Prism 9.

Structure (SMILES)	IC50
Cc1cc(Cl)cc(O)c1-c1nc2nc(N3CC[C@@H]4CCN(C)C[C@@H]43)cnc2n1C (relative stereo) [Example 77A, 5-chloro-3-methyl-2-[1-methyl-5-[rel-(3aS,7aR)-6-methyl-3,3a,4,5,7,7a-hexahydro-2H-pyrrolo[2,3-c]pyridin-1-yl]imidazo[4,5-b]pyrazin-2-yl]phenol]	< 100 nM
Cc1cc(Cl)cc(O)c1-c1nc2nc(N3CCC(O)C3)cnc2n1C (single isomer, unassigned) [Example 85A]	< 100 nM
Cc1cc(C(F)(F)F)cc(O)c1-c1nc2nc(OC3CCN(C)C3)ncc2n1C (racemic) [Example 55, 3-methyl-2-(7-methyl-2-((1-methylpyrrolidin-3-yl)oxy)-7H-purin-8-yl)-5-(trifluoromethyl)phenol]	100 to 1000 nM
Cc1cc(C(F)(F)F)cc(O)c1-c1nc2nc(N3CC(C)(O)C3)cnc2n1C [Example 84, 1-(2-(2-hydroxy-6-methyl-4-(trifluoromethyl)phenyl)-1-methyl-1H-imidazo[4,5-b]pyrazin-5-yl)-3-methylazetidin-3-ol]	100 to 1000 nM
Cn1c(-c2ccc(C(F)(F)F)cc2O)nc2nc(NC3COC3)ccc21 [Example 7, 2-(1-methyl-5-(oxetan-3-ylamino)-1H-imidazo[4,5-b]pyridin-2-yl)-5-(trifluoromethyl)phenol]	100 to 1000 nM
Cc1cc(C(F)(F)F)cc(O)c1-c1nc2nc(OCCO)ccc2n1C(C)C [Example 33, 2-(5-(2-hydroxyethoxy)-1-isopropyl-1H-imidazo[4,5-b]pyridin-2-yl)-3-methyl-5-(trifluoromethyl)phenol]	100 to 1000 nM
Cc1cc(C(F)(F)F)cc(O)c1-c1nc2nc(NC3CCN(C)C3)ccc2n1C (single isomer, unassigned) [Example 18A, 3-methyl-2-(1-methyl-5-((1-methylpyrrolidin-3-yl)amino)-1H-imidazo[4,5-b]pyridin-2-yl)-5-(trifluoromethyl)phenol]	< 100 nM
CN1CCC[C@@H](Nc2ccc3cn(-c4ccc(C(F)(F)F)cc4O)nc3n2)C1 [Example 40, (R)-2-(6-((1-methylpiperidin-3-yl)amino)-2H-pyrazolo[3,4-b]pyridin-2-yl)-5-(trifluoromethyl)phenol formate]	< 100 nM
CC(C)n1c(-c2ccc(C(F)(F)F)cc2O)nc2nc(NC3CCN(C)C3)ccc21 (single isomer, unassigned) [Example 10A, 2-(1-isopropyl-5-((1-methylpyrrolidin-3-yl)amino)-1H-imidazo[4,5-b]pyridin-2-yl)-5-(trifluoromethyl)phenol]	100 to 1000 nM
Cc1cc(C(F)(F)F)cc(O)c1-c1nc2nc(NCC(C)(C)O)ccc2n1C [Example 6, 2-(5-((2-hydroxy-2-methylpropyl)amino)-1-methyl-1H-imidazo[4,5-b]pyridin-2-yl)-3-methyl-5-(trifluoromethyl)phenol]	> 1000 nM
Cc1cc(C(F)(F)F)cc(O)c1-c1nc2nc(NC3CCN(C)C3)ccc2n1C(C)C (stereo not shown) [Example 10, 2-(1-isopropyl-5-((1-methylpyrrolidin-3-yl)amino)-1H-imidazo[4,5-b]pyridin-2-yl)-3-methyl-5-(trifluoromethyl)phenol]	< 100 nM
Cc1cc(C(F)(F)F)cc(O)c1-c1nc2nc(N[C@@H]3CCN(C)C3)ccc2n1C(C)C [Example 10B, (R)-2-(1-isopropyl-5-((1-methylpyrrolidin-3-yl)amino)-1H-imidazo[4,5-b]pyridin-2-yl)-3-methyl-5-(trifluoromethyl)phenol]	< 100 nM
CC(C)n1c(-c2ccc(C(F)(F)F)cc2O)nc2nc(NCCO)ccc21 [Example 17, 2-(5-((2-hydroxyethyl)amino)-1-isopropyl-1H-imidazo[4,5-b]pyridin-2-yl)-5-(trifluoromethyl)phenol]	100 to 1000 nM
COc1nc2c(nc1N[C@@H]1CCN(C)C1)nc(-c1c(C)cc(C(F)(F)F)cc1O)n2C [Example 72, (R)-2-(6-methoxy-1-methyl-5-((1-methylpyrrolidin-3-yl)amino)-1H-imidazo[4,5-b]pyrazin-2-yl)-3-methyl-5-(trifluoromethyl)phenol]	< 100 nM
CN1CCC[C@@H](Nc2ccc3c(n2)nc(-c2ccc(C(F)(F)F)cc2O)n3C)C1 [Example 2]	100 to 1000 nM
Cc1cc(C(F)(F)F)cc(O)c1-c1nc2nc(N3CCC(O)CC3)cnc2n1C [Example 63, 1-(2-(2-hydroxy-6-methyl-4-(trifluoromethyl)phenyl)-1-methyl-1H-imidazo[4,5-b]pyrazin-5-yl)piperidin-4-ol]	< 100 nM
COc1ccc2c(n1)nc(-c1c(C)cc(C(F)(F)F)cc1O)n2C(C)C [Example 34, 2-(1-isopropyl-5-methoxy-1H-imidazo[4,5-b]pyridin-2-yl)-3-methyl-5-(trifluoromethyl)phenol]	100 to 1000 nM
Cn1c(-c2ccc(C(F)(F)F)cc2O)nc2nc(N[C@@H]3CCC[C@@H](O)C3)ccc21 (relative stereo) [Example 22A, 2-(5-((3-hydroxycyclohexyl)amino)-1-methyl-1H-imidazo[4,5-b]pyridin-2-yl)-5-(trifluoromethyl)phenol]	100 to 1000 nM
COc1ccc2c(n1)nc(-c1c(C)cc(Cl)cc1O)n2C(C)C [Example 31, 5-chloro-2-(1-isopropyl-5-methoxy-1H-imidazo[4,5-b]pyridin-2-yl)-3-methylphenol]	100 to 1000 nM
CN1CC[C@@H](Nc2ccc3c(n2)nc(-c2ccc(C(F)(F)F)cc2O)n3C)C1 (single isomer, unassigned) [Example 19, 2-(1-methyl-5-((1-methylpyrrolidin-3-yl)amino)-1H-imidazo[4,5-b]pyridin-2-yl)-5-(trifluoromethyl)phenol]	< 100 nM
CCn1c(-c2ccc(C(F)(F)F)cc2O)nc2nc(NCCO)ccc21 [Example 16, 2-(1-ethyl-5-((2-hydroxyethyl)amino)-1H-imidazo[4,5-b]pyridin-2-yl)-5-(trifluoromethyl)phenol]	100 to 1000 nM
CNc1ccc2cn(-c3ccc(C(F)(F)F)cc3O)nc2n1 [Example 41, 2-[6-(methylamino)pyrazolo[3,4-b]pyridin-2-yl]-5-(trifluoromethyl)phenol]	100 to 1000 nM
COc1ccc2cn(-c3ccc(C(F)(F)F)cc3O)nc2n1 [Example 42]	100 to 1000 nM
Cc1cc(Cl)cc(O)c1-c1nc2nc(N(C)[C@@H]3CCN(C)C3)cnc2n1C [Example 81, 5-chloro-3-methyl-2-[1-methyl-5-[methyl-[(3R)-1-methylpyrrolidin-3-yl]amino]imidazo-[4,5-b]pyrazin-2-yl]phenol]	< 100 nM
CCn1c(-c2c(C)cc(C(F)(F)F)cc2O)nc2nc(NC3CCN(C)C3)ccc21 (single isomer, unassigned) [Example 8, 2-(1-ethyl-5-((1-methylpyrrolidin-3-yl)amino)-1H-imidazo[4,5-b]pyridin-2-yl)-3-methyl-5-(trifluoromethyl)phenol]	< 100 nM
COc1nc2nc(-c3c(C)cc(C(F)(F)F)cc3O)n(C)c2nc1CO [Example 65, 2-(6-(hydroxymethyl)-5-methoxy-1-methyl-1H-imidazo[4,5-b]pyrazin-2-yl)-3-methyl-5-(trifluoromethyl)phenol]	< 100 nM
Cc1cc(Cl)cc(O)c1-c1nc2nc(N3CCOCC3)cnc2n1C [Example 66, 5-chloro-3-methyl-2-(1-methyl-5-morpholino-imidazo[4,5-b]pyrazin-2-yl)phenol]	< 100 nM

Same assay, conditions: Homo sapiens, 3 h, Table 8 (formula II′/II vs formula III); MSU 200 μg/mL for 3 h; IL-1β release; read-out: IC50 Human monocyte-like cells MSU

Structure (SMILES)	IC50
CN1CCC[C@@H](Nc2ccc3c(n2)nc(-c2ccc(C(F)(F)F)cc2O)n3C)C1 [Example 2]	100 to 500 nM

Same assay, conditions: Homo sapiens, 3 h, read-out: IC50 Human monocyte-like cells MSU

Structure (SMILES)	IC50
Oc1cc(C(F)(F)F)ccc1-n1cc2ccc(OC(F)F)nc2n1 [Example 44, 2-[6-(difluoromethoxy)pyrazolo[3,4-b]pyridin-2-yl]-5-(trifluoromethyl)phenol]	100 to 1000 nM
Cc1cc(C(F)(F)F)cc(O)c1-c1nc2nc(N3CCC(C)(O)CC3)cnc2n1C [Example 75, 1-[2-[2-hydroxy-6-methyl-4-(trifluoromethyl)phenyl]-1-methyl-imidazo[4,5-b]pyrazin-5-yl]-4-methyl-piperidin-4-ol]	100 to 1000 nM

Same assay, conditions: Table 7; PMA-differentiated, LPS-primed cells; MSU 200 μg/mL for 3 h; IL-1β release; read-out: IC50 Human monocyte-like cells MSU

Structure (SMILES)	IC50
Cc1cc(Cl)cc(O)c1-c1nc2nc(N3CCC(C)(O)C3)cnc2n1C (single isomer, unassigned) [Example 86B]	< 100 nM
Cc1cc(C(F)(F)F)cc(O)c1-c1nc2nc(NC3CCCC3O)ccc2n1C (stereo not shown) [Example 36]	100 to 1000 nM
Cc1cc(C(F)(F)F)cc(O)c1-c1nc2nc(NC3CCN(C)C3)ccc2n1C (single isomer, unassigned) [Example 18B, 3-methyl-2-(1-methyl-5-((1-methylpyrrolidin-3-yl)amino)-1H-imidazo[4,5-b]pyridin-2-yl)-5-(trifluoromethyl)phenol]	100 to 1000 nM
Cn1c(-c2ccc(C(F)(F)F)cc2O)nc2nc(O[C@H]3CC[C@H](O)C3)ccc21 (single isomer, unassigned) [Example 37B, trans-2-(5-((3-hydroxycyclopentyl)oxy)-1-methyl-1H-imidazo[4,5-b]pyridin-2-yl)-5-(trifluoromethyl)phenol]	100 to 1000 nM
